The text below walks through data of patent publication US11208391B2, “Polymorphs and new path to synthesize Tafamidis” (AZAD PHARMA AG, priority 2018, dated 2021).

A short description of the data set: Pressure resistance of the crystalline form (hydraulic press, then PXRD/DSC). The data set is classed as physicochemical. The conditions noted are these: pressed 3-5 seconds at 1.5 MPa, Perkin Elmer hydraulic press, 13 mm stamp, material of method 1 (pentane/heptane), compared with non-pressed form. The procedure:
The diffraction measurements were performed at ambient conditions on a PANalytical X'Pert PRO θ-θ diffractometer of 240 mm of radius in reflection geometry, equipped with Cu Kα radiation and a PIXcel detector, operated at 45 kV and 40 mA. Each sample was mounted on a zero-background silicon holder and allowed to spin at 0.25 rev/s during data collection. The measurement angular range was 3.0-40.0° (2θ) with a step size of 0.013°. The scanning speed was 0.0821°/s (40.80 s/step).
Dry samples were pressed at the indicated pressures in a Perkin Elmer hydraulic press using a 13 mm stamp for a time period of 3-5 seconds.
The dried filter cake obtained by the above described method 1 was pressed for 3-5 seconds at 1.5 MPa using a Perkin Elmer hydraulic press and 13 mm tableting stamp. The resulting material was subjected to a DSC and a PXRD-experiment. The results are depicted in FIG. 13 (DSC) and FIG. 14 (PXRD). […] This feature renders this polymorph suitable for processing in the course of tableting, especially.

SMILES strings stand for the structures.

With `CNC[C@H](O)[C@@H](O)[C@H](O)[C@H](O)CO.O=C(O)c1ccc2nc(-c3cc(Cl)cc(Cl)c3)oc2c1` [crystalline Tafamidis meglumine, 2-(3,5-dichlorophenyl)-1,3-benzoxazole-6-carboxylic acid * (2R,3R,4R,5S)-6-(methyl-amino)-hexane-1,2,3,4,5-pentol], the “PXRD diffraction pattern / structure of the crystalline form upon pressure treatment” value was “does not change upon pressure treatment”. Moreover, under “listed as crystalline form”, the “PXRD diffraction pattern / structure of the crystalline form upon pressure treatment” value is “insensitive to pressure”.
